Target: T1, PLK1 (Homo sapiens, UniProt P53350)
T1 construct: purchased Thermo Fisher Scientific (Life Technologies) SelectScreen
Test: SelectScreen Z'LYTE
Format: biochemical
Procedure, shortened: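 NU5455 was profiled across the SelectScreen Broad panel of kinase activity and binding assays. Z'LYTE reactions such as CSF1R ran at apparent Km ATP, while the Adapta CAMK1 assay used ATP listed as 10. Values are given as percent.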

T1 sequence (P53350 whole entry): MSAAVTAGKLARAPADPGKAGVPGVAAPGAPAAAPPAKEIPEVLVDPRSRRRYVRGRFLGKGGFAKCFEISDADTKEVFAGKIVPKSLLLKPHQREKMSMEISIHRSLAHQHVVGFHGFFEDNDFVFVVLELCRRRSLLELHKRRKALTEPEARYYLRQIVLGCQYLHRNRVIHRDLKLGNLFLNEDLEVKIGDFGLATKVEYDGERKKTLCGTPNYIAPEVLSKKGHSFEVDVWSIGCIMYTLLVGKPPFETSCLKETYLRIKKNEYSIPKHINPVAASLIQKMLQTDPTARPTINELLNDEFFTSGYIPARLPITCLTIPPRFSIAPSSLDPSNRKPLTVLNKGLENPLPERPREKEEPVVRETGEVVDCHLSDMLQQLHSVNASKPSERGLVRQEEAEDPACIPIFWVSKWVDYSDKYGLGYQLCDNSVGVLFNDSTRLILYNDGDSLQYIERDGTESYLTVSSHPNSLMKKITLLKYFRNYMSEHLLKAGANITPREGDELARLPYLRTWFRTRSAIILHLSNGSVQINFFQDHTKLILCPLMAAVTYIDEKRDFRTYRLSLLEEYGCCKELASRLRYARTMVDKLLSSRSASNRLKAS

SMILES: CN(C(=O)CN1CCOCC1)c1ccc2sc3c(-c4cccc5c(=O)cc(N6CC7CCC(C6)O7)oc45)cccc3c2c1 [NU5455]
- inhibition at 1 µM: 9.2%
